For orientation: IC50 means the concentration that inhibits the measured activity by half.

Chain of CCR2 (P41597 whole entry): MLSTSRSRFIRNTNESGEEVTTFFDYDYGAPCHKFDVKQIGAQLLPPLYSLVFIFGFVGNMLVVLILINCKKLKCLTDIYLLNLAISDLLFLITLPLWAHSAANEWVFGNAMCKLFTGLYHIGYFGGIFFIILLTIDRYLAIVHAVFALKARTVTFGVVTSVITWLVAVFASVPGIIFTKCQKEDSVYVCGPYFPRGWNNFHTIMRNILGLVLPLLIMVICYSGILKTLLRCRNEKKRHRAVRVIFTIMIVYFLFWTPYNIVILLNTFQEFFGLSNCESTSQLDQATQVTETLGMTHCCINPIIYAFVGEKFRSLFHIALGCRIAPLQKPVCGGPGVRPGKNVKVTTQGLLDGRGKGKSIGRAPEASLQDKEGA

This test addresses CCR2 (Homo sapiens (Human), UniProt P41597). The test is described as follows: MCP-1 Receptor Binding Assay in THP-1 Cells.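 Also: THP-1 is a human monocytic cell line, and nonspecific binding was defined with 1 µM unlabeled MCP-1.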 Conditions: 0.5 nM 125I labeled MCP-1, 2 hours at 30° C., read-out: Inhibition of MCP-1 Binding IC50 MCP1B.
Turning to `CCC(OC(C)=O)[C@H]1CC[C@@H](N2CC(NC(=O)CNc3ncnc4ccc(C(F)(F)F)cc34)C2)CC1` (stereo partly drawn) [Example 100, 1-((1s,4S)-4-(3-(2-((6-(trifluoromethyl)quinazolin-4-yl)amino)acetamido)azetidin-1-yl)cyclohexyl)propyl acetate], the IC50 worked out at 28 nM.

In the case of `O=C(CNc1ncnc2ccc(C(F)(F)F)cc12)NC1CN(C2CCCCC2)C1` [Example 101, N-(1-cyclohexylazetidin-3-yl)-2-((6-(trifluoromethyl)quinazolin-4-yl)amino)acetamide], the IC50 amounted to 63 nM.

Take `O=C(CNc1ncnc2ccc(C(F)(F)F)cc12)NC1CN([C@H]2CC[C@@H](C3CCCCC3)CC2)C1` [Example 102, N-(1-((1s,4s)-1^˜1,1′-bi(cyclohexan)1-4-yl)azetidin-3-yl)-2-((6-(trifluoromethyl)quinazolin-4-yl)amino)acetamide]: the IC50 stood at 880 nM.

With `O=C1CCC(N2CC(NC(=O)CNc3ncnc4ccc(C(F)(F)F)cc34)C2)CC1` [Example 103, N-(1-(4-oxocyclohexyl)azetidin-3-yl)-2-((6-(trifluoromethyl)quinazolin-4-yl)amino)acetamide], the IC50 came to 530 nM.

As to `CCC(NC(=O)OC)[C@H]1CC[C@@H](N2CC(NC(=O)CNc3ncnc4ccc(C(F)(F)F)cc34)C2)CC1` (stereo partly drawn) [Example 104, methyl (−1-((1s,4S)-4-(3-(2-((6-(trifluoromethyl)quinazolin-4-yl)amino)acetamido)azetidin-1-yl)cyclohexyl)propyl)carbamate], the IC50 came to 644 nM.

For the compound `CCOCC1CCC(N2CC(NC(=O)CNc3ncnc4ccc(C(F)(F)F)cc34)C2)CC1` (stereo not drawn) [Example 105, N-(1-(4-(ethoxymethyl)cyclohexyl)azetidin-3-yl)-2-((6-(trifluoromethyl)quinazolin-4-yl)amino)acetamide], the IC50 came to 14 nM.

Consider `CCOC(=O)[C@H]1CC[C@@H](N2CC(NC(=O)CNc3ncnc4ccc(C(F)(F)F)cc34)C2)CC1` [Example 106, (1s,4s)-ethyl 4-(3-(2-((6-(trifluoromethyl)quinazolin-4-yl)amino)acetamido)azetidin-1-yl)cyclohexanecarboxylate], for which the IC50 turned out to be 13 nM.

On to `O=C(CNc1ncnc2ccc(C(F)(F)F)cc12)NC1CN([C@H]2CC[C@@H](CCO)CC2)C1` [Example 108, N-(1-((1s,4s)-4-(2-hydroxyethyl)cyclohexyl)azetidin-3-yl)-2-((6-(trifluoromethyl)quinazolin-4-yl)amino)acetamide], for which the IC50 stood at 19 nM.

For `O=C(CNc1ncnc2ccc(C(F)(F)F)cc12)NC1CN([C@H]2CC[C@@H](CO)CC2)C1` [Example 109, N-(1-((1s,4s)-4-(hydroxymethyl)cyclohexyl)azetidin-3-yl)-2-((6-(trifluoromethyl)quinazolin-4-yl)amino)acetamide], the IC50 was 58 nM.

Regarding `O=C(CNc1ncnc2ccc(C(F)(F)F)cc12)NC1CN([C@H]2CC[C@@H](O)CC2)C1` [Example 110, N-(1-((1s,4s)-4-hydroxycyclohexyl)azetidin-3-yl)-2-((6-(trifluoromethyl)quinazolin-4-yl)amino)acetamide], the IC50 came to 68 nM.

Turning to `CC(=O)NC[C@H]1CC[C@@H](N2CC(NC(=O)CNc3ncnc4ccc(C(F)(F)F)cc34)C2)CC1` [Example 111, N-(1-((1s,4s)-4-(acetamidomethyl)cyclohexyl)azetidin-3-yl)-2-((6-(trifluoromethyl)quinazolin-4-yl)amino)acetamide], the IC50 is 37 nM.

For `O=C(CNc1ncnc2ccc(C(F)(F)F)cc12)NC1CN([C@H]2CC[C@@H](CNC(=O)C(F)(F)F)CC2)C1` [Example 112], the IC50 was found to be 81 nM.

As for `CC(C)(C)OC(=O)NC[C@H]1CC[C@@H](N2CC(NC(=O)CNc3ncnc4ccc(C(F)(F)F)cc34)C2)CC1` [Example 113, tert-butyl (((1s,4s)-4-(3-(2-((6-(trifluoromethyl)quinazolin-4-yl)amino)acetamido)azetidin-1-yl)cyclohexyl)methyl)carbamate], the IC50 turned out to be 120 nM.

With `CC(C)C(=O)NC[C@H]1CC[C@@H](N2CC(NC(=O)CNc3ncnc4ccc(C(F)(F)F)cc34)C2)CC1` [Example 114], the IC50 turned out to be 280 nM.

`CC(=O)N(C[C@H]1CC[C@@H](N2CC(NC(=O)CNc3ncnc4ccc(C(F)(F)F)cc34)C2)CC1)C(C)C` [Example 115]: the IC50 was found to be 340 nM.

With `NC[C@H]1CC[C@@H](N2CC(NC(=O)CNc3ncnc4ccc(C(F)(F)F)cc34)C2)CC1` [Example 116, N-(1-((1s,4s)-4-(aminomethyl)cyclohexyl)azetidin-3-yl)-2-((6-(trifluoromethyl)quinazolin-4-yl)amino)acetamide], the IC50 is 240 nM.

Regarding `CC(C)[C@H]1CC[C@@H](N2CC(NC(=O)CNc3ncnc4ccc(C(F)(F)F)cc34)C2)CC1` [Example 117, N-(1-((1s,4s)-4-isopropylcyclohexyl)azetidin-3-yl)-2-((6-(trifluoromethyl)quinazolin-4-yl)amino)acetamide], the IC50 is 100 nM.

With `[2H][C@]1(N2CC(NC(=O)CNc3ncnc4ccc(C(F)(F)F)cc34)C2)CC[C@@H](C(C)C)CC1` [Example 118, N-(1-deutero-1-((1s,4s)-4-isopropylcyclohexyl)azetidin-3-yl)-2-((6-(trifluoromethyl)quinazolin-4-yl)amino)acetamide], the IC50 amounted to 85 nM.

Regarding `CC1CCC(N2CC(NC(=O)CNc3ncnc4ccc(C(F)(F)F)cc34)C2)CC1` (stereo not drawn) [Example 119, N-(1-(4-methylcyclohexyl)azetidin-3-yl)-2-((6-(trifluoromethyl)quinazolin-4-yl)amino)acetamide], the IC50 is 82 nM.

On to `CCC(OC)[C@H]1CC[C@@H](N2CC(NC(=O)CNc3ncnc4ccc(C(F)(F)F)cc34)C2)CC1` (stereo partly drawn) [Example 120, N-(1-((1s,4s)-4-(1-methoxypropyl)cyclohexyl)azetidin-3-yl)-2-((6-(trifluoromethyl)quinazolin-4-yl)amino)acetamide], for which the IC50 worked out at 83 nM.

Regarding `COCC[C@H]1CC[C@@H](N2CC(NC(=O)CNc3ncnc4ccc(C(F)(F)F)cc34)C2)CC1` [Example 121, N-(1-((1s,4s)-4-(2-methoxyethyl)cyclohexyl)azetidin-3-yl)-2-((6-(trifluoromethyl)quinazolin-4-yl)amino)acetamide], the IC50 is 98 nM.

With `CCOC(=O)CC1CCC(N2CC(NC(=O)CNc3ncnc4ccc(C(F)(F)F)cc34)C2)CC1` (stereo not drawn) [Example 122], the IC50 turned out to be 120 nM.

Consider `O=C(CNc1ncnc2ccc(C(F)(F)F)cc12)NC1CN(C2CCC(C(F)(F)F)CC2)C1` (stereo not drawn) [Example 123, N-(1-(4-(trifluoromethyl)cyclohexyl)azetidin-3-yl)-2-((6-(trifluoromethyl)quinazolin-4-yl)amino)acetamide], for which the IC50 turned out to be 130 nM.

As for `CN(C)C(=O)OC[C@H]1CC[C@@H](N2CC(NC(=O)CNc3ncnc4ccc(C(F)(F)F)cc34)C2)CC1` [Example 124, ((1s,4s)-4-(3-(2-((6-(trifluoromethyl)quinazolin-4-yl)amino)acetamido)azetidin-1-yl)cyclohexyl)methyl dimethylcarbamate], the IC50 was determined as 210 nM.

Turning to `CC(C)(C)OC(=O)NC1CCC(N2CC(NC(=O)CNc3ncnc4ccc(C(F)(F)F)cc34)C2)CC1` (stereo not drawn) [Example 125, tert-butyl (4-(3-(2-((6-(trifluoromethyl)quinazolin-4-yl)amino)acetamido)azetidin-1-yl)cyclohexyl)carbamate], the IC50 is 220 nM.

On to `CON(C)C(=O)C1CCC(N2CC(NC(=O)CNc3ncnc4ccc(C(F)(F)F)cc34)C2)CC1` (stereo not drawn) [Example 126], for which the IC50 amounted to 91 nM.

For `CCNC(=O)C1CCC(N2CC(NC(=O)CNc3ncnc4ccc(C(F)(F)F)cc34)C2)CC1` (stereo not drawn) [Example 127, N-ethyl-4-(3-(2-((6-(trifluoromethyl)quinazolin-4-yl)amino)acetamido)azetidin-1-yl)cyclohexanecarboxamide], the IC50 worked out at 200 nM.

In the case of `CN(C)C(=O)[C@H]1CC[C@@H](N2CC(NC(=O)CNc3ncnc4ccc(C(F)(F)F)cc34)C2)CC1` [Example 128, (1s,4s)-N,N-dimethyl-4-(3-(2-((6-(trifluoromethyl)quinazolin-4-yl)amino)acetamido)azetidin-1-yl)cyclohexanecarboxamide], the IC50 was 360 nM.

As for `COc1ccc(CNC(=O)C2CCC(N3CC(NC(=O)CNc4ncnc5ccc(C(F)(F)F)cc45)C3)CC2)c(OC)c1` (stereo not drawn) [Example 129, N-(2,4-dimethoxybenzyl)-4-(3-(2-((6-(trifluoromethyl)quinazolin-4-yl)amino)acetamido)azetidin-1-yl)cyclohexanecarboxamide], the IC50 was determined as 390 nM.

With `O=C(CNc1ncnc2ccc(C(F)(F)F)cc12)NC1CN([C@H]2CC[C@@H](C(=O)N3CCCC3)CC2)C1` [Example 130, N-(1-((1s,4s)-4-(pyrrolidine-1-carbonyl)cyclohexyl)azetidin-3-yl)-2-((6-(trifluoromethyl)quinazolin-4-yl)amino)acetamide], the IC50 turned out to be 1000 nM.

In the case of `O=C(CNc1ncnc2ccc(C(F)(F)F)cc12)NC1CN([C@H]2CC[C@@H](N3CCC(F)(F)C3)CC2)C1` [Example 131, N-(1-((1s,4s)-4-(3,3-difluoropyrrolidin-1-yl)cyclohexyl)azetidin-3-yl)-2-((6-(trifluoromethyl)quinazolin-4-yl)amino)acetamide], the IC50 turned out to be 300 nM.

Consider `O=C(CNc1ncnc2ccc(C(F)(F)F)cc12)NC1CN([C@H]2CC[C@@H](N3CCOCC3)CC2)C1` [Example 132, N-(1-((1s,4s)-4-morpholinocyclohexyl)azetidin-3-yl)-2-((6-(trifluoromethyl)quinazolin-4-yl)amino)acetamide], for which the IC50 is 190 nM.

On to `O=C(CNc1ncnc2ccc(C(F)(F)F)cc12)NC1CN([C@H]2CC[C@@H](N3CCSCC3)CC2)C1` [Example 133, N-(1-((1s,4s)-4-thiomorpholinocyclohexyl)azetidin-3-yl)-2-((6-(trifluoromethyl)quinazolin-4-yl)amino)acetamide], for which the IC50 is 200 nM.

The values above are taken from patent US9062048B2, “Cyclohexyl-azetidinyl antagonists of CCR2” (Janssen Pharmaceutica NV, priority 2010, dated 2015).
